In patent US20240409585A1, “MACROCYCLIC IMMUNOMODULATORS” (priority 2021, published 2024):
Numbered stars: 1 amine (or outer) side, 2 acyl side, 3 side chain; on linkers, the order of the positions; unused ones are H or OH. Bridge positions count the residues as written; N and C are the ends. Square brackets hold non-standard residues; d marks the D form. Peptide text beside a SMILES is read from it. * marks the point of attachment. ξ: configuration not given here. Bip(3'-COOH) = N[C@@H](Cc1ccc(-c2cccc(C(=O)O)c2)cc1)C(=O)O; X25 = N#CCCc1ccc(-c2ccc(C[C@H](N[*:1])C(=O)[*:2])cc2)cc1; X44 = COc1cc(F)cc(-c2ccc(C[C@H](N[*:1])C(=O)[*:2])cc2)c1; Bip = N[C@@H](Cc1ccc(-c2ccccc2)cc1)C(=O)O; Phe(2-Cl) = N[C@@H](Cc1ccccc1Cl)C(=O)O; Phe(3-Me) = Cc1cccc(C[C@H](N)C(=O)O)c1; 4Pal = N[C@@H](Cc1ccncc1)C(=O)O; Cha = N[C@@H](CC1CCCCC1)C(=O)O; Cit = NC(=O)NCCC[C@H](N)C(=O)O; Ile(3ξ) = CCC(C)[C@H](N)C(=O)O; Thr(3ξ) = CC(O)[C@H](N)C(=O)O; ξCha = NC(CC1CCCCC1)C(=O)O; Carboxymethyl = O=C(O)C*; NMeA = CN[C@@H](C)C(=O)O; Nle = CCCC[C@H](N)C(=O)O; Dab = NCC[C@H](N)C(=O)O; Dap = NC[C@H](N)C(=O)O; ξC = NC(CS)C(=O)O; Acm = CC(=O)NC*

The molecules below were run against T1, PE-labeled human PD-L1-Ig binding to Jurkat cell line over-expressing human PD-1 (Jurkat-PD-1) (Homo sapiens, UniProt Q15116) (assay: Jurkat-PD-1 Cell Binding High-Content Screening Assay (CBA): Method 1). Conditions: Jurkat-hPD-1 cells, PE-labeled PD-L1-Ig 20 nM final; read-out: Jurkat HPDL1 PD1 IC50 (uM) (Method 1).
T1 construct: expressed in transfected cells; host or cells: Jurkat
T1 sequence (Q15116 25-288): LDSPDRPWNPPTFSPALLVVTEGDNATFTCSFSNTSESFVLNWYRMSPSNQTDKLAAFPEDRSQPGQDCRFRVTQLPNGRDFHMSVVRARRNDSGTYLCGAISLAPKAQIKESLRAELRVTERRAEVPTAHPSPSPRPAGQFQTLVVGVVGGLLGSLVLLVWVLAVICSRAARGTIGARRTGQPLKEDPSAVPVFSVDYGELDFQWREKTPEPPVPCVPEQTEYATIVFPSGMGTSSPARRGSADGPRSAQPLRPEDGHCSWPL

IC50 [µM] | Structure (SMILES)
0.08 | Cc1cccc(C[C@@H]2NC(=O)[C@H](CC(=O)O)NC(=O)[C@H](Cc3ccc(OCC(=O)O)cc3)NC(=O)[C@H](Cc3ccc(OCC(=O)O)cc3)NC(=O)CSC[C@@H](C(N)=O)NC(=O)[C@H](CC(=O)O)NC(=O)[C@H](C(C)C)NC(=O)[C@H](CC3CCCCC3)NC(=O)[C@H](CCN)NC(=O)[C@@H](CC(C)C)NC(=O)[C@H](C)N(C)C(=O)[C@H](Cc3ccc(OCC(=O)O)cc3)NC(=O)[C@H](Cc3ccc(-c4ccccc4)cc3)NC(=O)[C@H](Cc3ccc(OCC(=O)O)cc3)NC2=O)c1 [Compound 1654] ({CH2CO}-Y(Carboxymethyl)Y(Carboxymethyl)D[Phe(3-Me)]Y(Carboxymethyl)[Bip]Y(Carboxymethyl)[NMeA][dL][Dab][Cha]VDC-NH2; thioether N-14)
0.87 | Cc1cccc2c(CC3NC(=O)[C@H](CC(=O)O)NC(=O)[C@H](Cc4ccc(O)cc4)NC(=O)[C@H](Cc4ccccc4)NC(=O)CSC[C@@H](C(=O)N[C@@H](C)C(N)=O)NC(=O)[C@H]([C@@H](C)O)NC(=O)[C@H](C(C)C)NC(=O)[C@H](CC(C)C)NC(=O)[C@H](CCCNC(=N)N)NC(=O)[C@@H](CC(C)C)NC(=O)[C@H](C)N(C)C(=O)[C@H](CCCNC(=N)N)NC(=O)[C@H](Cc4ccc(-c5ccccc5)cc4)NC(=O)[C@H](C(C)C)NC3=O)n[nH]c12 (mixture of isomers) [Compound 1105]
0.02 | CC(C)C[C@@H]1NC(=O)[C@H](Cc2c[nH]c3ccccc23)NC(=O)[C@H](CC(=O)O)NC(=O)[C@H](Cc2ccc(O)cc2)NC(=O)[C@H](Cc2ccccc2)NC(=O)CSC[C@@H](C(=O)N[C@@H](C)C(N)=O)NC(=O)[C@H](CO)NC(=O)[C@H](C(C)C)NC(=O)[C@H](CC(C)C)NC(=O)[C@H](CCC(=O)O)NC(=O)[C@@H](C)NC(=O)[C@H](C)N(C)C(=O)[C@H](C(C)C)NC(=O)[C@H](Cc2ccc(-c3ccccc3)cc2)NC1=O [Compound 1749] ({CH2CO}-FYDWL[Bip]V[NMeA][dA]ELVSCA-NH2; thioether N-14)
0.04 | CC(C)C[C@@H]1NC(=O)[C@H](CCCCN)NC(=O)[C@@H](CC(C)C)NC(=O)[C@H](C)N(C)C(=O)[C@H](CCCNC(N)=O)NC(=O)[C@H](Cc2ccc(-c3ccccc3)cc2)NC(=O)[C@H](C(C)C)NC(=O)[C@H](Cc2c[nH]c3ccccc23)NC(=O)[C@H](CC(=O)O)NC(=O)[C@H](Cc2ccc(O)cc2)NC(=O)[C@H](CC(N)=O)NC(=O)CSC[C@@H](C(=O)N[C@@H](C)C(N)=O)NC(=O)[C@H](CO)NC(=O)[C@H](C(C)C)NC1=O [Compound 1473] ({CH2CO}-NYDWV[Bip][Cit][NMeA][dL]KLVSCA-NH2; thioether N-14)
0.04 | CC(C)C[C@@H]1NC(=O)[C@H](Cc2c[nH]c3ccccc23)NC(=O)[C@H](CC(=O)O)NC(=O)[C@H](Cc2ccc(OCC(=O)O)cc2)NC(=O)[C@H](CC(N)=O)NC(=O)CSC[C@@H](C(=O)N[C@@H](C)C(N)=O)NC(=O)[C@H](CO)NC(=O)[C@H](C(C)C)NC(=O)[C@H](CC(C)C)NC(=O)[C@H](CC(N)=O)NC(=O)[C@@H](C)NC(=O)[C@H](C)N(C)C(=O)[C@H](C(C)C)NC(=O)[C@H](Cc2ccc(-c3ccccc3)cc2)NC1=O [Compound 1769] ({CH2CO}-NY(Carboxymethyl)DWL[Bip]V[NMeA][dA]NLVSCA-NH2; thioether N-14)
0.32 | COc1cc(F)cc(-c2ccc(C[C@@H]3NC(=O)[C@H](C(C)C)NC(=O)[C@H](Cc4c[nH]c5ccccc45)NC(=O)[C@H](CC(=O)O)NC(=O)[C@H](Cc4ccc(O)cc4)NC(=O)[C@H](CC(N)=O)NC(=O)CSC[C@@H](C(=O)N[C@@H](C)C(N)=O)NC(=O)[C@H]([C@@H](C)O)NC(=O)[C@H](C(C)C)NC(=O)[C@H](CC(C)C)NC(=O)[C@H](CCN)NC(=O)[C@@H](CC(C)C)NC(=O)[C@H](C)N(C)C(=O)[C@H](CCCNC(=N)N)NC3=O)cc2)c1 [Compound 1223] ({CH2CO}-NYDWV[X44]R[NMeA][dL][Dab]LVTCA-NH2; thioether N-14)
0.28 | CCC(C)[C@@H]1NC(=O)[C@H](Cc2ccc(-c3ccccc3)cc2)NC(=O)[C@H](C(C)C)NC(=O)[C@H](Cc2c[nH]c3ccccc23)NC(=O)[C@H](CC(N)=O)NC(=O)[C@H](Cc2ccc(-c3cccc(C(=O)O)c3)cc2)NC(=O)[C@H](Cc2ccncc2)NC(=O)CSC[C@@H](C(=O)N[C@@H](C)C(=O)N[C@@H](CCCCN)C(N)=O)NC(=O)[C@H](C(C)O)NC(=O)[C@H](C(C)C)NC(=O)C(CC2CCCCC2)NC(=O)[C@H](CC(N)=O)NC(=O)[C@@H](CC(C)C)NC(=O)[C@H](C)N(C)C1=O (stereo partly drawn) [Compound 2019] ({CH2CO}-[4Pal][Bip(3'-COOH)]NWV[Bip][Ile(3ξ)][NMeA][dL]N[ξCha]V[Thr(3ξ)]CAK-NH2; thioether N-14)
0.32 | CCCC[C@@H]1NC(=O)[C@H](CC(N)=O)NC(=O)[C@@H](C)NC(=O)[C@H](C)N(C)C(=O)[C@H](C(C)C)NC(=O)[C@H](Cc2ccc(-c3ccccc3)cc2)NC(=O)[C@H](CC(C)C)NC(=O)[C@H](Cc2c[nH]c3ccccc23)NC(=O)[C@H](CC(=O)O)NC(=O)[C@H](Cc2ccc(O)cc2)NC(=O)[C@H](Cc2ccccc2)NC(=O)CSC[C@@H](C(=O)N[C@@H](C)C(N)=O)NC(=O)[C@H]([C@@H](C)O)NC(=O)[C@H](CCCNC(=N)N)NC1=O [Compound 1816] ({CH2CO}-FYDWL[Bip]V[NMeA][dA]N[Nle]RTCA-NH2; thioether N-14)
0.07 | CC(C)C[C@@H]1NC(=O)[C@H](CCCNC(=N)N)NC(=O)[C@@H](CC(C)C)NC(=O)[C@H](C)N(C)C(=O)[C@H](CCCNC(=N)N)NC(=O)[C@H](Cc2ccc(-c3ccccc3)cc2)NC(=O)[C@H](C(C)C)NC(=O)[C@H](Cc2c[nH]c3ccccc23)NC(=O)[C@H](CC(=O)O)NC(=O)[C@H](Cc2ccc(O)cc2)NC(=O)[C@H](Cc2cnc[nH]2)NC(=O)CSC[C@@H](C(=O)N[C@@H](C)C(N)=O)NC(=O)[C@H]([C@@H](C)O)NC(=O)[C@H](C(C)C)NC1=O [Compound 1047] ({CH2CO}-HYDWV[Bip]R[NMeA][dL]RLVTCA-NH2; thioether N-14)
0.25 | CC(C)C[C@@H]1NC(=O)[C@H](CCN)NC(=O)[C@@H](CC(C)C)NC(=O)[C@H](C)N(C)C(=O)[C@H](CCCNC(=N)N)NC(=O)[C@H](Cc2ccc(-c3ccc(CCC#N)cc3)cc2)NC(=O)[C@H](C(C)C)NC(=O)[C@H](Cc2c[nH]c3ccccc23)NC(=O)[C@H](CC(=O)O)NC(=O)[C@H](Cc2ccc(O)cc2)NC(=O)[C@H](CC(N)=O)NC(=O)CSC[C@@H](C(=O)N[C@@H](C)C(N)=O)NC(=O)[C@H]([C@@H](C)O)NC(=O)[C@H](C(C)C)NC1=O [Compound 1213] ({CH2CO}-NYDWV[X25]R[NMeA][dL][Dab]LVTCA-NH2; thioether N-14)
0.05 | CC(C)C[C@@H]1NC(=O)[C@H](CCN)NC(=O)[C@@H](CC(C)C)NC(=O)[C@H](C)N(C)C(=O)[C@H](CCCNC(=N)N)NC(=O)[C@H](Cc2ccc(-c3ccccc3)cc2)NC(=O)[C@H](C(C)C)NC(=O)[C@H](Cc2c[nH]c3ccccc23)NC(=O)[C@H](CC(=O)O)NC(=O)[C@H](Cc2ccc(OCC(=O)O)cc2)NC(=O)[C@H](Cc2cnc[nH]2)NC(=O)CSC[C@@H](C(=O)N[C@@H](C)C(N)=O)NC(=O)[C@H]([C@@H](C)O)NC(=O)[C@H](C(C)C)NC1=O [Compound 1150] ({CH2CO}-HY(Carboxymethyl)DWV[Bip]R[NMeA][dL][Dab]LVTCA-NH2; thioether N-14)
0.03 | CC(C)C[C@@H]1NC(=O)[C@H](Cc2c[nH]c3ccccc23)NC(=O)[C@H](CC(=O)O)NC(=O)[C@H](Cc2ccc(O)cc2)NC(=O)[C@H](Cc2ccccc2)NC(=O)CSC[C@@H](C(=O)NCC(N)=O)NC(=O)[C@H](CO)NC(=O)[C@H](C(C)C)NC(=O)[C@H](CC(C)C)NC(=O)[C@H](CC(N)=O)NC(=O)CNC(=O)[C@H](C)N(C)C(=O)[C@H](C(C)C)NC(=O)[C@H](Cc2ccc(-c3ccccc3)cc2)NC1=O [Compound 1757] ({CH2CO}-FYDWL[Bip]V[NMeA]GNLVSCG-NH2; thioether N-14)
0.14 | CC(=O)NCSC[C@@H]1NC(=O)[C@H](CC(C)C)NC(=O)[C@H](CC(N)=O)NC(=O)[C@@H](CC(C)C)NC(=O)[C@H](C)N(C)C(=O)[C@H](CSCNC(C)=O)NC(=O)[C@H](Cc2ccc(-c3ccccc3)cc2)NC(=O)[C@H](CC(C)C)NC(=O)[C@H](Cc2cccc(C)c2)NC(=O)[C@H](CC(=O)O)NC(=O)[C@H](Cc2ccncc2)NC(=O)[C@H](Cc2ccc(OCC(=O)O)cc2)NC(=O)CSCC(C(=O)NCC(N)=O)NC(=O)[C@H](CO)NC1=O (stereo partly drawn) [Compound 1886] ({CH2CO}-Y(Carboxymethyl)[4Pal]D[Phe(3-Me)]L[Bip]C(Acm)[NMeA][dL]NLC(Acm)S[ξC]G-NH2; thioether N-14)
0.24 | CC(C)C[C@@H]1NC(=O)[C@H](Cc2c[nH]c3ccccc23)NC(=O)[C@H](CC(=O)O)NC(=O)[C@H](Cc2ccccc2Cl)NC(=O)[C@H](Cc2ccccc2)NC(=O)CSC[C@@H](C(=O)N[C@@H](C)C(N)=O)NC(=O)[C@H](CO)NC(=O)[C@H](C(C)C)NC(=O)[C@H](CC(C)C)NC(=O)[C@H](CC(N)=O)NC(=O)[C@@H](C)NC(=O)[C@H](C)N(C)C(=O)[C@H](C(C)C)NC(=O)[C@H](Cc2ccc(-c3ccccc3)cc2)NC1=O [Compound 1807] ({CH2CO}-F[Phe(2-Cl)]DWL[Bip]V[NMeA][dA]NLVSCA-NH2; thioether N-14)
0.01 | CC(C)C[C@H]1NC(=O)[C@H](C)N(C)C(=O)[C@H](CCCNC(N)=O)NC(=O)[C@H](Cc2ccc(-c3ccccc3)cc2)NC(=O)[C@H](C(C)C)NC(=O)[C@H](Cc2c[nH]c3ccccc23)NC(=O)[C@H](CC(=O)O)NC(=O)[C@H](Cc2ccc(O)cc2)NC(=O)[C@H](CN)NC(=O)CSC[C@@H](C(=O)N[C@@H](C)C(N)=O)NC(=O)[C@H]([C@@H](C)O)NC(=O)[C@H](C(C)C)NC(=O)[C@H](CC2CCCCC2)NC(=O)[C@H](CCCNC(=N)N)NC1=O [Compound 1503] ({CH2CO}-[Dap]YDWV[Bip][Cit][NMeA][dL]R[Cha]VTCA-NH2; thioether N-14)
